Laboratory results: publication PMC4816952, “[^18F]FE@SNAP—a specific PET tracer for melanin-concentrating hormone receptor 1 imaging?” (EJNMMI Research, 2016)
Marks after values point to notes of the source that are not given here.

Legend:
[1] = Blood metabolite analysis by radio-TLC; type: in vivo, Sprague-Dawley rats; conditions: 45 min after tracer application, baseline group, n = 3, plasma
Experimental: For analysis of potential circulating metabolites, blood samples from the baseline group were collected into heparinized tubes and immediately stored on ice before processing. The blood was centrifuged (Hettich Rotanta/TRC; 3400×g, 4 min) to separate cellular components. Sample cleanup was performed by vortexing plasma with the equivalent amount of acetonitrile and by subsequent centrifugation (Hettich Universal 30RF; 23,000×g, 3 min) to remove precipitated proteins. The obtained supernatant was applied to radio-thin-layer chromatography (radio-TLC silica gel plates, mobile phase acetonitrile/water 70/30 v/v, application volume 2 μL on origin) and analysed via a Canberra-Packard Instant Imager.

MCHR1 [2] = target: T1, MCHR1 (Rattus norvegicus, UniProt P97639); experiment: Ex vivo brain autoradiography after IV injection into the jugular vein of awake rats; type: in vivo, Sprague-Dawley rats; design: from tissue; host or cells: rat brain (hypothalamus, ventricular system) and peripheral organs after in vivo injection; conditions: for Ratio Hypothalamus/non-target / Ratio Ventricle/non-target: ratio of ROIs (DLU/mm^2), 45 min after injection, n = 3
Experimental: (§1) Conscious and freely moving rats of the baseline and blocking groups were always examined simultaneously: rats of the baseline group (n = 3) received vehicle (400 μL), and rats of the blocking group (n = 3) received SNAP-7941 (15 mg/kg; freshly dissolved in 400 μL) via the jugular vein 30 min prior to tracer application. Via the jugular vein, 51.33 ± 26.2 MBq of [^18F]FE@SNAP (specific activity 12.3–43.1 GBq/μmol; radiochemical purity ≥95 %; 30–100 μL) was then administered to all rats. After 45 min, rats were sacrificed by IV ketamine injection and decapitated, and the brains were removed and immediately quick frozen in isopentane (−45 °C) for ex vivo autoradiography. Other organs including the eyes, tongue, muscle, epidermal white adipose tissue (WATep), heart, lung, stomach, pancreas, liver, duodenum, colon, spleen, kidneys, adrenals, testis, bladder and bone as well as blood and urine were removed, weighed and measured in a gamma counter (2480 WIZARD^2, PerkinElmer). Radioactivity concentrations were normalized to dose and weight and expressed as percent injected dose per gram (%ID/g). To determine significant differences, a two-tailed t test with […] was performed using the statistics add-on in Microsoft Excel® 2013. A value of P < 0.05 was considered as significant.
Whole rat brains (n = 6) were cut in a cryo-microtome (Microm HM 560, Thermo Scientific) into 50-μm-thick slices and thaw-mounted onto superfrost slides (Menzel-Gläser SUPERFROST® PLUS, Thermo Scientific). Samples were placed on Phosphor Imager plates (Multisensitive Phosphor Screens Long Type MS, PPN 7001724, PerkinElmer) for an exposure period of 18 h and then analysed with a Cyclone Phosphor Imager (Cyclone Plus Storage Phosphor System, PerkinElmer). Data analysis was performed with OptiQuant® data processing software Version 5.0. Due to high-MCHR1 appearance, special emphasis was laid on the hypothalamus and the ventricular system. […] To facilitate comparison, manually defined template ROIs fitting to all slices (30 slices/brain; bregma −1.0 to −2.5 mm) were applied. […] In detail, ratios of hypothalamus/non-target and ventricle/non-target were calculated. Significant differences were calculated as described before.
Fig. 2 Scheme of the ROIs for calculation of ratios. 1 (yellow): ventricular system; 2 (green): hypothalamic area; 3 (pink): non-target region; and 4 (orange): whole brain. It is noteworthy that ROIs 1 and 2 include the target areas as well as some background areas, due to varying target size throughout the different brain levels (bregma)

MCHR2 = target: MCHR2; design: method as in PMID 24106662; conditions: second MCH receptor; cited from earlier work
human MCHR1 = target: human MCHR1; design: method as in PMID 24106662; conditions: CHO cells expressing the human MCHR1; cited from earlier work
[3] = Biodistribution 45 min after IV injection; type: in vivo, Sprague-Dawley rats; conditions: rats, 45 min after injection
Experimental: as §1

MCHR1 [4] = target: T1, MCHR1; experiment: Preliminary small-animal PET/MR imaging; type: in vivo; design: from tissue; host or cells: living rat (in vivo PET imaging); conditions: healthy anaesthetized rat, baseline conditions, tail vein bolus
Experimental: An anaesthetized rat (with 1.5–2.5 % isoflurane) was immobilized in a multimodal animal carrier unit (MACU; medres®—medical research GmbH, Cologne, Germany) and maintained at a body temperature of 37 °C throughout the whole experiment. [^18F]FE@SNAP (47.64 ± 1.23 MBq) was injected as a bolus via the lateral tail vein, and dynamic PET imaging (Siemens Inveon preclinical μPET/SPECT/CT system) was performed over 60 min. Immediately afterwards, T1-weighted high-resolution axial, coronary and sagittal brain MRI scans were performed using a Bruker BioSpec 94/30 USR small-animal MR system (Bruker BioSpin GmbH, Karlsruhe, Germany).

[5] = blocking with SNAP-7941 15 mg/kg 30 min prior

T1 sequence (P97639 whole entry): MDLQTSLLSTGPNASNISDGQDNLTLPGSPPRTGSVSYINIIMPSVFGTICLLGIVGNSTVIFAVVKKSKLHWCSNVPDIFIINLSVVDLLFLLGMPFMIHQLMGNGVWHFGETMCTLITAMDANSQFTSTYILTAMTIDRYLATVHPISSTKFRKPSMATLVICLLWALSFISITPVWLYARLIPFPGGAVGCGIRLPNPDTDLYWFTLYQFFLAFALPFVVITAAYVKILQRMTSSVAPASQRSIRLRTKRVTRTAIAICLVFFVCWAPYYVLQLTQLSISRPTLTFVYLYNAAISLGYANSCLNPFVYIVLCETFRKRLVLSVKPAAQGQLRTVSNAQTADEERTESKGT

COCC1=C(C(=O)OCC[18F])C(c2ccc(F)c(F)c2)N(C(=O)NCCCN2CCC(c3cccc(NC(C)=O)c3)CC2)C(=O)N1 (stereo not shown) [[^18F]FE@SNAP]
parent compound in the blood [1]: 51.50 ± 5.5% | Ratio Hypothalamus/non-target (MCHR1 [2]; baseline (vehicle)): 2.14 ± 0.9 | Ratio Ventricle/non-target (MCHR1 [2]; baseline (vehicle)): 2.20 ± 0.4 | whole-brain uptake, blocking group versus baseline animals (MCHR1 [2]; blocking with 15 mg/kg SNAP-7941, n = 3 per group): significantly higher | Ratio Hypothalamus/non-target (MCHR1 [2]; [5]): 1.58 ± 0.5^a | Ratio Ventricle/non-target (MCHR1 [2]; [5]): 1.38 ± 0.2^a | Ki (MCHR2): > 1000 nM | Kd (human MCHR1): 2.9 nM | defluorination / uptake of ^18F-fluoride into the bone [3]: no defluorination | tracer uptake in brain (small-animal PET) (MCHR1 [4]): high tracer uptake in the ventricular system
